The results in this text go back to the supplement of paper PMC12137928.

For the test, the system named is HCT116. The settings on record: 72 h. The gist of the method: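 IC50 and maximal efficacy were derived from four-parameter Hill curve fits. The underlying CellTiter-Glo luminescence was scaled so that vehicle equals 0% and positive control equals -100%, and was then pattern-corrected. HCT116 cells had been seeded in 1536-well plates at 250 per well.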

The structures appear in SMILES notation. Counter-ions that a name gives are not always drawn. A value given as a limit tells only on which side of the number the result lay.

Consider `CC(Cc1ccccc1)NCc1ccccc1Cl` (centres undefined) [Clobenzorex hydrochloride], for which the IC50 cell viability is, setting by setting: (ICRF193 0 nM) over 45.8 µM; (ICRF193 200 nM) over 45.8 µM.

As to `N#C[C@@H]1CCCN1C(=O)CNC12CC3CC(CC(O)(C3)C1)C2` [Vildagliptin], the IC50 cell viability is over 45.8 µM (ICRF193 0 nM) and over 45.8 µM (ICRF193 200 nM).

`C[C@@H]1C[C@H]2[C@@H]3CCC4=CC(=O)C=C[C@]4(C)[C@@]3(F)[C@@H](O)C[C@]2(C)[C@@]1(O)C(=O)CO` [Dexamethasone]: the IC50 cell viability is over 45.8 µM (ICRF193 0 nM) and over 45.8 µM (ICRF193 200 nM).

For the compound `C1CCC(NC2CCCCC2)CC1` [Dicyclohexylamine], the IC50 cell viability is over 45.8 µM (ICRF193 0 nM) and over 45.8 µM (ICRF193 200 nM).

As to `C[N+]1(CC2COC(c3ccccc3)(C3CCCCC3)O2)CCCCC1` (centres undefined) [Oxapium iodide], the IC50 cell viability runs as follows: (ICRF193 0 nM) over 45.8 µM; (ICRF193 200 nM) over 45.8 µM.

Take `Cc1nn(C)c2c1C(c1ccccc1F)=NCC(=O)N2C` [Zolazepam Hydrochloride]: the IC50 cell viability runs as follows: (ICRF193 0 nM) over 45.8 µM; (ICRF193 200 nM) over 45.8 µM.

Consider `Nc1nnc(-c2cccc(Cl)c2Cl)c(N)n1` [Lamotrigine], for which the IC50 cell viability by setting is: (ICRF193 0 nM) over 45.8 µM; (ICRF193 200 nM) over 45.8 µM.

`N=C(N)NCCC[C@@H](NC(=O)[C@@H]1CCCN1C(=O)[C@@H]1CSSCCC(=O)N[C@@H](Cc2ccc(O)cc2)C(=O)N[C@@H](Cc2ccccc2)C(=O)N[C@@H](CCC(N)=O)C(=O)N[C@@H](CC(N)=O)C(=O)N1)C(=O)NCC(N)=O` [Desmopressin (Acetate)]: the IC50 cell viability was over 45.8 µM (ICRF193 0 nM) and over 45.8 µM (ICRF193 200 nM).

Take `CO[C@@]1(NC(=O)C(C(=O)O)c2ccc(O)cc2)C(=O)N2C(C(=O)O)=C(CSc3nnnn3C)CO[C@@H]21` (some centres undefined) [Moxalactam disodium]: the IC50 cell viability runs as follows: (ICRF193 0 nM) over 45.8 µM; (ICRF193 200 nM) over 45.8 µM.

`CO/N=C(\C(=O)N[C@@H]1C(=O)N2C(C(=O)O)=C(Cn3nnc(C)n3)CS[C@H]12)c1csc(N)n1` [Cefteram] yielded an IC50 cell viability (ICRF193 0 nM) of over 45.8 µM and an IC50 cell viability (ICRF193 200 nM) of over 45.8 µM.

For `Nc1cccc2c1C(=O)N(C1CCC(=O)NC1=O)C2=O` (centres undefined) [Pomalidomide], the IC50 cell viability is over 45.8 µM (ICRF193 0 nM) and over 45.8 µM (ICRF193 200 nM).

`O=C(O)CCNC(=O)c1ccccc1` [Betamipron]: the IC50 cell viability reads like this: (ICRF193 0 nM) over 45.8 µM; (ICRF193 200 nM) over 45.8 µM.

Turning to `O=S(=O)(O)OC[C@H]1O[C@@](COS(=O)(=O)O)(O[C@H]2O[C@H](COS(=O)(=O)O)[C@@H](OS(=O)(=O)O)[C@H](OS(=O)(=O)O)[C@H]2OS(=O)(=O)O)[C@@H](OS(=O)(=O)O)[C@@H]1OS(=O)(=O)O` [Sucrose octasulfate, sodium salt], the IC50 cell viability is, setting by setting: (ICRF193 0 nM) over 45.8 µM; (ICRF193 200 nM) over 45.8 µM.

Compound `C[C@@H](O)[C@H](N)C(=O)O` [L-Threonine] yielded an IC50 cell viability (ICRF193 0 nM) of over 45.8 µM and an IC50 cell viability (ICRF193 200 nM) of over 45.8 µM.

Consider `CC1OC2(CS1)CN1CCC2CC1` (centres undefined) [Cevimeline hydrochloride], for which the IC50 cell viability is, setting by setting: (ICRF193 0 nM) over 45.8 µM; (ICRF193 200 nM) over 45.8 µM.

For `O=C(N[C@H](CO)[C@H](O)c1ccc([N+](=O)[O-])cc1)C(Cl)Cl` [Chloramphenicol], the IC50 cell viability (ICRF193 0 nM) is over 45.8 µM and the IC50 cell viability (ICRF193 200 nM) is over 45.8 µM.

For `O=C(O)CSc1nnc(Br)n1-c1ccc(C2CC2)c2ccccc12` [Lesinurad (sodium)], the IC50 cell viability reads like this: (ICRF193 0 nM) over 45.8 µM; (ICRF193 200 nM) over 45.8 µM.

In turn, `Cn1c(=O)c2c(ncn2C)n(C)c1=O` [Caffeine] had an IC50 cell viability (ICRF193 0 nM) of over 45.8 µM and an IC50 cell viability (ICRF193 200 nM) of over 45.8 µM.

Consider `COc1ccc(C(=O)N2CCCC2=O)cc1` [Aniracetam], for which the IC50 cell viability was over 45.8 µM (ICRF193 0 nM) and over 45.8 µM (ICRF193 200 nM).

The compound `CO[C@H]1C[C@H](O[C@H]2[C@H](C)[C@@H](O[C@@H]3O[C@H](C)C[C@H](N(C)C)[C@H]3OC(C)=O)[C@@H](C)C[C@@]3(CO3)C(=O)[C@H](C)[C@@H](OC(C)=O)[C@@H](C)[C@@H](C)OC(=O)[C@@H]2C)O[C@@H](C)[C@@H]1OC(C)=O` [Troleandomycin] displayed an IC50 cell viability (ICRF193 0 nM) of over 45.8 µM and an IC50 cell viability (ICRF193 200 nM) of over 45.8 µM.

With `CC(C(=O)O)c1ccc(/C=C2\CCCCC2=O)cc1` (centres undefined) [Pelubiprofen], the IC50 cell viability is over 45.8 µM (ICRF193 0 nM) and over 45.8 µM (ICRF193 200 nM).

Consider `CCOC(=O)c1c(N)sc2c1CCN(Cc1ccccc1)C2` [Tinoridine], for which the IC50 cell viability was over 45.8 µM (ICRF193 0 nM) and over 45.8 µM (ICRF193 200 nM).

The compound `O=C(O)CCCc1ccc(N(CCCl)CCCl)cc1` [Chlorambucil] yielded an IC50 cell viability (ICRF193 0 nM) of over 45.8 µM and an IC50 cell viability (ICRF193 200 nM) of over 45.8 µM.

`O=C1OC(c2ccc(O)cc2)(c2ccc(O)cc2)c2ccccc21` [Phenolphthalein]: the IC50 cell viability (ICRF193 0 nM) was over 45.8 µM and the IC50 cell viability (ICRF193 200 nM) is over 45.8 µM.

Regarding `CC([C@H](O)c1ccccc1)N(C)C` (stereo partly drawn) [N-METHYL (-)EPHEDRINE [1R,2S]], the IC50 cell viability is, setting by setting: (ICRF193 0 nM) over 45.8 µM; (ICRF193 200 nM) over 45.8 µM.

`O=C(O[C@H]1C[N+]2(CCCOc3ccccc3)CCC1CC2)C(O)(c1cccs1)c1cccs1` [Aclidinium (Bromide)] showed an IC50 cell viability (ICRF193 0 nM) of over 45.8 µM and an IC50 cell viability (ICRF193 200 nM) of over 45.8 µM.

In the case of `CCCC(=O)O[C@]1(C(=O)CC)CC[C@H]2[C@@H]3CCC4=CC(=O)CC[C@]4(C)[C@H]3[C@@H](O)C[C@@]21C` [Resocortol butyrate], the IC50 cell viability reads like this: (ICRF193 0 nM) over 45.8 µM; (ICRF193 200 nM) over 45.8 µM.

`O=C(CCOCCOCCOCCOCCC(=O)Nc1c(I)cc(I)c(C(=O)O)c1I)Nc1c(I)cc(I)c(C(=O)O)c1I` [Iodoxamic Acid] displayed an IC50 cell viability (ICRF193 0 nM) of over 45.8 µM and an IC50 cell viability (ICRF193 200 nM) of over 45.8 µM.

Consider `C[C@]12CC[C@H]3[C@@H](CC[C@@]45O[C@@H]4C(O)=C(C#N)C[C@]35C)[C@@H]1CC[C@@H]2O` [Trilostane], for which the IC50 cell viability reads like this: (ICRF193 0 nM) over 45.8 µM; (ICRF193 200 nM) over 45.8 µM.

With `CC(C)NC1CCn2c(=O)[nH]c3cccc(c32)C1O` (centres undefined) [Zilpaterol·HCl], the IC50 cell viability by setting is: (ICRF193 0 nM) over 45.8 µM; (ICRF193 200 nM) over 45.8 µM.

Consider `S=C(SSC(=S)N1CCCCC1)N1CCCCC1` [Dicyclopentamethylenethiuram disulfide], for which the IC50 cell viability by setting is: (ICRF193 0 nM) over 45.8 µM; (ICRF193 200 nM) over 45.8 µM.

For the compound `CCOC(=O)[C@H](CCc1ccccc1)N[C@@H](C)C(=O)N1Cc2ccccc2C[C@H]1C(=O)O` [Quinapril hydrochloride], the IC50 cell viability was over 45.8 µM (ICRF193 0 nM) and over 45.8 µM (ICRF193 200 nM).

Compound `O=C(NCCO[N+](=O)[O-])c1cccnc1` [Nicorandil] displayed an IC50 cell viability (ICRF193 0 nM) of over 45.8 µM and an IC50 cell viability (ICRF193 200 nM) of over 45.8 µM.

Take `OCCOc1ccc(/C(=C(/CCCl)c2ccccc2)c2ccccc2)cc1` [Ospemifene]: the IC50 cell viability was over 45.8 µM (ICRF193 0 nM) and over 45.8 µM (ICRF193 200 nM).

In the case of `CC(=O)CCC(=O)O` [Calcium levulinate], the IC50 cell viability is, setting by setting: (ICRF193 0 nM) over 45.8 µM; (ICRF193 200 nM) over 45.8 µM.

The compound `O=C(c1ccccc1)c1ccc2n1CCC2C(=O)O` (centres undefined) [Ketorolac] showed an IC50 cell viability (ICRF193 0 nM) of over 45.8 µM and an IC50 cell viability (ICRF193 200 nM) of over 45.8 µM.

Turning to `COc1ccc(CNc2nc(N3CCC[C@H]3CO)ncc2C(=O)NCc2ncccn2)cc1Cl` [Avanafil], the IC50 cell viability (ICRF193 0 nM) was over 45.8 µM and the IC50 cell viability (ICRF193 200 nM) was over 45.8 µM.

For `Cc1ccccc1C(=O)N1CC/C(=N\OS(=O)(=O)O)c2ccc(Cl)cc21` [Alilusem potassium], the IC50 cell viability is over 45.8 µM (ICRF193 0 nM) and over 45.8 µM (ICRF193 200 nM).

With `Cc1ccsc1/C=C/C1=NCCCN1C` [Morantel tartrate], the IC50 cell viability by setting is: (ICRF193 0 nM) over 45.8 µM; (ICRF193 200 nM) over 45.8 µM.

`NC(=O)NC(=O)Cc1ccccc1` [Phenacemide] came in with an IC50 cell viability (ICRF193 0 nM) of over 45.8 µM and an IC50 cell viability (ICRF193 200 nM) of over 45.8 µM.

Take `CC/C(=C(/CC)c1ccc(OP(=O)(O)O)cc1)c1ccc(OP(=O)(O)O)cc1` [Fosfestrol tetrasodium]: the IC50 cell viability reads like this: (ICRF193 0 nM) over 45.8 µM; (ICRF193 200 nM) over 45.8 µM.

As to `COc1ccc(CN2CCNCC2)c(OC)c1OC` [Trimetazidine dihydrochloride], the IC50 cell viability was over 45.8 µM (ICRF193 0 nM) and over 45.8 µM (ICRF193 200 nM).

With `CCC[C@@H]1C[C@@H](C(=O)N[C@@H]([C@H]2O[C@H](SC)[C@H](O)[C@@H](O)[C@H]2O)[C@@H](C)O)N(C)C1` [Lincomycin hydrochloride], the IC50 cell viability was over 45.8 µM (ICRF193 0 nM) and over 45.8 µM (ICRF193 200 nM).

Take `CC1(C)O[C@@H]2C[C@H]3[C@@H]4C[C@H](F)C5=CC(=O)C=C[C@]5(C)[C@@]4(F)[C@@H](O)C[C@]3(C)[C@]2(C(=O)CO)O1` [Fluocinolone acetonide]: the IC50 cell viability is over 45.8 µM (ICRF193 0 nM) and over 45.8 µM (ICRF193 200 nM).

With `N#C[C@@H]1C[C@@H]2C[C@@H]2N1C(=O)[C@@H](N)C12CC3CC(CC(O)(C3)C1)C2` [Saxagliptin], the IC50 cell viability by setting is: (ICRF193 0 nM) over 45.8 µM; (ICRF193 200 nM) over 45.8 µM.

As to `CCN(CC)CCOC(=O)c1cccnc1` [Nicametate citrate], the IC50 cell viability runs as follows: (ICRF193 0 nM) over 45.8 µM; (ICRF193 200 nM) over 45.8 µM.

For the compound `O=C(O)c1cn(-c2ccc(F)cc2)c2cc(N3CCNCC3)c(F)cc2c1=O` [Sarafloxacin hydrochloride], the IC50 cell viability is, setting by setting: (ICRF193 0 nM) over 45.8 µM; (ICRF193 200 nM) over 45.8 µM.

Regarding `O=C1O[C@@H]2[C@@H](O)[C@H](O)O[C@@H]2C1O` (stereo partly drawn) [D-Glucuronolactone], the IC50 cell viability runs as follows: (ICRF193 0 nM) over 45.8 µM; (ICRF193 200 nM) over 45.8 µM.

Take `Cc1cc(O)cc(C)c1Cl` [4-Chloro-3,5-dimethylphenol]: the IC50 cell viability reads like this: (ICRF193 0 nM) over 45.8 µM; (ICRF193 200 nM) over 45.8 µM.

On to `CC(C)[N+](C)(CCC(C(N)=O)(c1ccccc1)c1ccccc1)C(C)C` [Isopropamide], for which the IC50 cell viability was over 45.8 µM (ICRF193 0 nM) and over 45.8 µM (ICRF193 200 nM).

`COc1ccc2c(=O)c(C)c(-c3ccccc3)oc2c1CN(C)C` [Dimefline hydrochloride]: the IC50 cell viability is over 45.8 µM (ICRF193 0 nM) and over 45.8 µM (ICRF193 200 nM).

The compound `O=C(O)Cc1ccccc1Nc1c(Cl)cccc1Cl` [Diclofenac sodium] returned an IC50 cell viability (ICRF193 0 nM) of over 45.8 µM and an IC50 cell viability (ICRF193 200 nM) of over 45.8 µM.
